Experimental data as given in patent US20230255962A1, “COMBINATION OF A BTK INHIBITOR AND AN INHIBITOR OF CDK9 TO TREAT CANCER” (ASTRAZENECA AB, priority 2017, published 2023).

Key:
OCILy10 tumor cells = experiment: Subcutaneous tumor model, tumor volume; type: in vivo, C.B.-17 SCID female mice; settings: OCILy10, following 3 cycles of dosing; AZD4573 ip BID 2 on/5 off, ibrutinib 12 mg/kg po QD
Procedure: AZD4573 was formulated in dimethylacetamide (DMA)/polyethylene glycol 400 (PEG 400)/1% w/v Tween 80 solution 2/30/68 and dosed at 5 mL/kg, intraperitoneally (ip), BID with a 2 hour split on days 1 and 2 followed by a 5 day dose holiday; i.e., a 2 on/5 off schedule. […]
5×10^6 OCILy10 tumor cells or 10×10^6 TMD8 tumor cells were injected subcutaneously in the right flank of C.B.-17 SCID female mice in a volume of 0.1 mL containing 50% matrigel. 10×10^6 Karpas-422 tumor cells were injected subcutaneously in the right flank of SCID beige female mice in a volume of 0.1 mL containing 50% matrigel. Tumor volumes (measured by caliper), animal body weight, and tumor condition were recorded twice weekly for the duration of the studies. The tumor volume was calculated using the formula: length (mm)×width (mm)^2×0.52. For efficacy studies, growth inhibition from the start of treatment was assessed by comparison of the differences in tumor volume between control and treated groups. […]
AZD4573 was formulated in dimethylacetamide (DMA)/polyethylene glycol 400 (PEG 400)/1% w/v Tween 80 solution 2/30/68 and dosed at 5 mL/kg, intraperitoneally (ip), bi-daily (BID) with a 2 hour split on days 1 and 2 with a 5 day dose holiday. […] Tumor volumes (measured by caliper), animal body weight, and tumor condition were recorded twice weekly for the duration of the studies. […]

OCILy10 [1] = experiment: Western blot time course, cleaved caspase-3 (induction of apoptosis); type: cell-based; settings: OCILy10, 100 nM AZD4573 8-hour time course, alone or following 24-hour pre-treatment with 100 nM acalabrutinib
Procedure: (§1) Two BTK inhibitor-sensitive ABC-DLBCL cell lines (OCILy10 and TMD8) and one insensitive GCB-DLBCL cell line (Karpas422) were treated for an 8-hour time course with either 100 nM AZD4573 alone or following a 24-hour pre-treatment with 100 nM acalabrutinib (since exposure to acalabrutinib for 24 hours was sufficient to induce maximal BH3-only protein levels). Cells were harvested for protein lysates at varying time points (0, 0.5, 1, 2, 4, and 8 hours) post-AZD4573 treatment, normalized for protein concentration using the BCA Protein Assay Kit, and run for western blots according to standard protocols. To ensure expected target engagement was achieved, the blots were probed for the proximal and distal biomarkers for CDK9 (pSer2-RNAPolII and Mcl-1, respectively) and the biomarker for activated BTK (pBTK). To gauge the time to induction of apoptosis, cleaved caspase-3 was also assessed. A loading control (vinculin) was also utilized for normalization.
The BTK inhibitor-sensitive ABC-DLBCL cell line OCILy10 was treated in vitro for an 8-hour time course with either 100 nM AZD4573 alone or following a 24-hour pre-treatment with 30 nM ibrutinib since, similar to acalabrutinib, exposure for 24 hours was sufficient to induce maximal BH3-only protein levels (data not shown). […] To gauge the time to induction of apoptosis, cleaved caspase-3 was also assessed. […]

OCILy10 [2] = experiment: TMRE/DAPI flow cytometry, percentage of apoptotic or dead cells; type: cell-based
Procedure: (§2) Two BTK inhibitor-sensitive ABC-DLBCL cell lines (OCILy10 and TMD8) and one insensitive GCB-DLBCL cell line (Karpas422) were treated with either vehicle (DMSO), 100 nM acalabrutinib, or 100 nM AZD4573 for varying lengths of time as either single agent or in combination. Since exposure of BTKi-sensitive cell lines to acalabrutinib for 24 hours was sufficient to induce maximal BH3-only protein levels relative to vehicle-treated cells (FIG. 1), 24-hour pre-treatment of acalabrutinib was chosen for one of the combination sequences. Therefore, cells were treated with: 32 hours of acalabrutinib alone; 8 hours of AZD4573 alone; 8 hours of AZD4573 and acalabrutinib dosed concurrently; or 32 hours of acalabrutinib with AZD4573 added sequentially for the final 8 of those 32 hours (in other words, 24 hours of acalabrutinib pre-treatment).
(§3) The percentage of apoptotic or dead cells was determined by staining the samples with both tetramethylrhodamine, ethyl ester (TMRE) and 4′,6-diamidino-2-phenylindole (DAPI) and then subjecting them to flow cytometry using a BD LSR Fortessa. TMRE is a positively charged dye that accumulates in active mitochondria, and cells undergoing apoptosis experience mitochondrial outter membrane permeabilization (MOMP), which then fails to retain TMRE. […] Following appropriate treatments, cells were stained directly with 200 nM TMRE, incubated for 30 minutes at 37° C., resuspended in flow buffer containing DAPI, and subjected to flow cytometry. Flowjo was used to establish appropriate gates according to viability (DAPI) and MOMP (TMRE), and viable cells were defined as those with low DAPI and high TMRE staining.

TMD8 [3] = experiment: Western blot time course, cleaved caspase-3 (induction of apoptosis); type: cell-based; settings: TMD8, 100 nM AZD4573 8-hour time course, alone or following 24-hour pre-treatment with 100 nM acalabrutinib
Procedure: as §1

Karpas422 [4] = experiment: TMRE/DAPI flow cytometry, percentage of apoptotic or dead cells; type: cell-based; settings: Karpas-422, 100 nM acalabrutinib alone or in combination with 100 nM AZD4573
Procedure: as §2, §3

OCILy10 [5] = experiment: Western blot of Bcl2 family / BH3-only protein levels; type: cell-based
Procedure: (§4) OCILy10, TMD8, and Karpas422 were treated with either vehicle or 100 nM acalabrutinib for 2 to 72 hours. Protein lysates were harvested at multiple time points in that interval, protein concentration was determined using the BCA Protein Assay Kit, and Western blots were performed according to standard protocol to assess the effects on Bcl2 family protein levels. Each sample was normalized to vinculin as a loading control, and then protein levels of acalabrutinib-treated samples were calculated relative to those of vehicle-treated samples.
The BTK inhibitor-sensitive ABC-DLBCL cell line OCILy10 was treated in vitro for an 8-hour time course with either 100 nM AZD4573 alone or following a 24-hour pre-treatment with 30 nM ibrutinib since, similar to acalabrutinib, exposure for 24 hours was sufficient to induce maximal BH3-only protein levels (data not shown). Cells were harvested for protein lysates at varying time points (0, 0.5, 1, 2, 4, and 8 hours) post-AZD4573 treatment, normalized for protein concentration using the BCA Protein Assay Kit, and run for Western blots according to standard protocols. To ensure expected target engagement was achieved, the blots were probed for the proximal and distal biomarkers for CDK9 (pSer2-RNAPolII and Mcl-1, respectively) and the biomarker for activated BTK (pBTK). […] To gauge the time to induction of apoptosis, cleaved caspase-3 was also assessed. […]

OCILy10 [6] = experiment: CellTiter-Glo viability readout, 72 hours, GI50; type: cell-based; settings: OCILy10, 10-point dose-response
Procedure: (§5) Two ABC-DLBCL (OCILy10 and TMD8) cell lines and one GCB-DLBCL (Karpas422) cell line were treated with either vehicle (DMSO) or a 10-point, ½ log serially dilution of acalabrutinib for 72 hours with a CellTiter-Glo viability readout. The concentration at which 50% growth is inhibited (GI50) was calculated using GraphPad Prism or GeneData.

TMD8 [7] = experiment: CellTiter-Glo viability readout, 72 hours, GI50; type: cell-based; settings: TMD8, 10-point dose-response
Procedure: as §5

Karpas422 [8] = experiment: Western blot of Bcl2 family / BH3-only protein levels; type: cell-based; settings: Karpas422, 100 nM acalabrutinib
Procedure: as §4

TMD8 [9] = experiment: as above; type: cell-based
Procedure: as §4

Row | SMILES | complete response, % of treated animals (OCILy10 tumor cells) [%] | induction of cleaved caspase (OCILy10 [1]) | cell death (OCILy10 [2]; OCI-LY-10, 8 hours of 100 nM AZD4573 alone) [%] | induction of cleaved caspase (TMD8 [3]) | cell death (OCILy10 [2]; OCI-LY-10, 32 hours of 100 nM acalabrutinib alone) [%] | effect on apoptotic/dead cells (Karpas422 [4]) | time to maximal BH3-only protein levels following dosing (OCILy10 [5]; BTK inhibitor-sensitive cells (OCILy10), 100 nM) [h] | levels of pro-apoptotic BH3-only proteins Bim and Bmf (OCILy10 [5]; OCILy10, 100 nM acalabrutinib, 24 hours, relative to the insensitive cell line) | sensitivity to BTK inhibition (dose-response) (OCILy10 [6]) | sensitivity to BTK inhibition (dose-response) (TMD8 [7]) | BH3-only protein levels (Karpas422 [8]) | time to maximal BH3-only protein levels following dosing (TMD8 [9]; BTK inhibitor-sensitive cells (TMD8), 100 nM) [h] | levels of pro-apoptotic BH3-only proteins Bim and Bmf (TMD8 [9]; TMD8, 100 nM acalabrutinib, 24 hours, relative to the insensitive cell line)
1 | CC(=O)N[C@@H]1CCC[C@H](C(=O)Nc2cc(-c3cnn4c3CC(C)(C)C4)c(Cl)cn2)C1 [AZD4573, (1S,3R)-3-acetamido-N-(5-chloro-4-(5,5-dimethyl-5,6-dihydro-4H-pyrrolo[1,2-b]pyrazol-3-yl)pyridin-2-yl)cyclohexanecarboxamide] | 100 | mild caspase activation by 8 hours | ~40 | mild caspase activation by 8 hours |  |  |  |  |  |  |  |  | 
2 | CC#CC(=O)N1CCC[C@H]1c1nc(-c2ccc(C(=O)Nc3ccccn3)cc2)c2c(N)nccn12 [acalabrutinib, (S)-4-(8-amino-3-(1-but-2-ynoylpyrrolidin-2-yl)imidazo[1,5-a]pyrazin-1-yl)-N-(pyridin-2-yl)benzamide] |  |  |  |  | ~20 | minimal effect | ≤ 24 | increased | sensitive | sensitive | did not increase | ≤ 24 | increased
